According to patent publication US12319684B2 (Sanford Burnham Prebys Medical Discovery Institute, priority 2014, dated 2025):
Read-outs that look alike come from different tables or passages of the source.

Target: T1, human apelin receptor (APJ, AGTRL-1, APLNR) (Homo sapiens, UniProt P35414)
T1 construct: host or cells: Chinese hamster ovary cells
T1 sequence (P35414 1-380): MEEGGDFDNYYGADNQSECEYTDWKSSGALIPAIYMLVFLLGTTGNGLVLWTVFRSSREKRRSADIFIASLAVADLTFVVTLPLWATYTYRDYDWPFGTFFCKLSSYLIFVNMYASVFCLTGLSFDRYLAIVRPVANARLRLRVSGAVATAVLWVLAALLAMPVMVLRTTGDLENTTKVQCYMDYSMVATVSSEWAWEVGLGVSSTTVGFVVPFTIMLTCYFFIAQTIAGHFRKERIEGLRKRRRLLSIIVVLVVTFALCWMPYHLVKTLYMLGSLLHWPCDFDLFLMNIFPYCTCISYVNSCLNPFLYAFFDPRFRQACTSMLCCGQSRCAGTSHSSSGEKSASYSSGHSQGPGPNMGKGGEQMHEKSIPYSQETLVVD
Assay: APJ cAMP cell-based assay (forskolin-stimulated CHO cells, enzyme fragment complementation)
Settings: for Emax: CHO, 0.5 h, read-out: APJ cAMP % resp (efficacy)
Procedure: The assays disclosed herein were performed using cell lines from DiscoveRx, Inc.
Biological activity was determined in a cell-based assay. This assay detects activation of the receptor by reporting on intracellular cyclic adenosine monophosphate (cAMP) level. Chinese hamster ovary cells engineered to express a stably integrated human apelin receptor (APJ, AGTRL-1, APLNR), were plated into the wells of a microtiter plate. Cells were stimulated with forskolin to increase intracellular cAMP. Immediately following, compounds were added at a range of final concentrations 0.0-100 μM, in DMSO (not to exceed a final DMSO concentration of >1% v/v), and allowed to incubate with the cells for 0.5 h. At the end of the incubation, cells were lysed to stop APJ signaling, and cAMP was quantified using a commercially available assay kit that applies enzyme fragment complementation technology and bioluminescence, in a competitive ELISA format.
Compound efficacy (% resp) is reported as a percentage of the maximal apelin-13 response at 1 nM (control).

[1] = CHO cells expressing human APJ, forskolin-stimulated, 0.5 h incubation, 50% of control (apelin-13, 1 nM) response, read-out: APJ cAMP EC50
[2] = percentage of the maximal apelin-13 response at 1 nM (control)

EC50 [1] [nM] | Emax [2] [%] | Compound | Emax [%] | EC50 [nM]
> 10000 | 91 | Cc1ccc2nc(CSc3nnc(-c4cccs4)n3-c3cccc(Cl)c3)cc(=O)n2c1 [Example 28, 2-[4-(3-Chloro-phenyl)-5-thiophen-2-yl-4H-[1,2,4]triazol-3-ylsulfanylmethyl]-7-methyl-pyrido[1,2-a]pyrimidin-4-one] |  | 
252 | 62 | Cc1ccc2nc(CSc3nnc(-c4cccs4)n3-c3ccccc3Cl)cc(=O)n2c1 [Example 29, 2-[4-(2-Chloro-phenyl)-5-thiophen-2-yl-4H-[1,2,4]triazol-3-ylsulfanylmethyl]-7-methyl-pyrido[1,2-a]pyrimidin-4-one] |  | 
> 10000 | 31 | COc1ccc(-n2c(SCc3cc(=O)n4cc(C)ccc4n3)nnc2-c2cccs2)cn1 [Example 30] |  | 
1460 | 33 | COc1ccccc1-n1c(SCc2csc(-c3ccc(C(F)(F)F)cc3)n2)nnc1-c1cccs1 [Example 32, 4-(2-Methoxy-phenyl)-3-thiophen-2-yl-5-[2-(4-trifluoromethyl-phenyl)-thiazol-4-ylmethylsulfanyl]-4H-[1,2,4]triazole] |  | 
1170 | 80 | COc1ccccc1-n1c(SCc2csc(-c3ccc(F)cc3)n2)nnc1-c1cccs1 [Example 33, 3-[2-(4-Fluoro-phenyl)-thiazol-4-ylmethylsulfanyl]-4-(2-methoxy-phenyl)-5-thiophen-2-yl-4H-[1,2,4]triazole] |  | 
> 10000 | 120 | COc1ccccc1-n1c(SCc2csc(-c3ccc([N+](=O)[O-])cc3)n2)nnc1-c1cccs1 [Example 34, 4-(2-Methoxy-phenyl)-3-[2-(4-nitro-phenyl)-thiazol-4-ylmethylsulfanyl]-5-thiophen-2-yl-4H-[1,2,4]triazole] |  | 
> 10000 | 90 | COc1ccccc1-n1c(SCc2csc(-c3ccc(Cl)cc3)n2)nnc1-c1cccs1 [Example 35, 3-[2-(4-Chloro-phenyl)-thiazol-4-ylmethylsulfanyl]-4-(2-methoxy-phenyl)-5-thiophen-2-yl-4H-[1,2,4]triazole] |  | 
> 10000 | 83 | COc1ccccc1-n1c(SCc2csc(-c3ccc(C)cc3)n2)nnc1-c1cccs1 [Example 36, 4-(2-Methoxy-phenyl)-3-thiophen-2-yl-5-(2-p-tolyl-thiazol-4-ylmethylsulfanyl)-4H-[1,2,4]triazole] |  | 
3090 | 138 | COc1ccc(-c2nc(CSc3nnc(-c4cccs4)n3-c3ccccc3OC)co2)cc1 [Example 37, 4-(2-Methoxy-phenyl)-3-[2-(4-methoxy-phenyl)-oxazol-4-ylmethylsulfanyl]-5-thiophen-2-yl-4H-[1,2,4]triazole] |  | 
> 10000 | 18 | COc1ccccc1-n1c(SCc2coc(-c3ccc(C(F)(F)F)cc3)n2)nnc1-c1cccs1 [Example 38, 4-(2-Methoxy-phenyl)-3-thiophen-2-yl-5-[2-(4-trifluoromethyl-phenyl)-oxazol-4-ylmethylsulfanyl]-4H-[1,2,4]triazole] |  | 
105 | 93 | COc1ccccc1-n1c(SCc2coc(-c3ccc(F)cc3)n2)nnc1-c1cccs1 [Example 39, 3-[2-(4-Fluoro-phenyl)-oxazol-4-ylmethylsulfanyl]-4-(2-methoxy-phenyl)-5-thiophen-2-yl-4H-[1,2,4]triazole] |  | 
3340 | 58 | COc1ccccc1-n1c(SCc2coc(-c3ccc(Cl)cc3)n2)nnc1-c1cccs1 [Example 40, 3-[2-(4-Chloro-phenyl)-oxazol-4-ylmethylsulfanyl]-4-(2-methoxy-phenyl)-5-thiophen-2-yl-4H-[1,2,4]triazole] |  | 
2490 | 58 | COc1ccccc1-n1c(SCc2coc(-c3ccc(C)cc3)n2)nnc1-c1cccs1 [Example 41, 4-(2-Methoxy-phenyl)-3-thiophen-2-yl-5-(2-p-tolyl-oxazol-4-ylmethylsulfanyl)-4H-[1,2,4]triazole] |  | 
> 10000 | 33 | COc1ccccc1-n1c(SCc2coc(-c3ccc(Br)cc3)n2)nnc1-c1cccs1 [Example 42, 3-[2-(4-Bromo-phenyl)-oxazol-4-ylmethylsulfanyl]-4-(2-methoxy-phenyl)-5-thiophen-2-yl-4H-[1,2,4]triazole] |  | 
3890 | 102 | COc1ccccc1-n1c(SCc2coc(-c3ccc(OC(F)(F)F)cc3)n2)nnc1-c1cccs1 [Example 43, 4-(2-Methoxy-phenyl)-3-thiophen-2-yl-5-[2-(4-trifluoromethoxy-phenyl)-oxazol-4-ylmethylsulfanyl]-4H-[1,2,4]triazole] |  | 
 |  | COc1ccccc1-n1c(SCc2cc(=O)n3c(C)cccc3n2)nnc1-c1cccs1 [Example 44, 2-[4-(2-Methoxy-phenyl)-5-thiophen-2-yl-4H-[1,2,4]triazol-3-ylsulfanylmethyl]-6-methyl-pyrido[1,2-a]pyrimidin-4-one] | 119 | 9.8
70.5 | 130 | COc1ccc2nc(CSc3nnc(-c4cccs4)n3-c3ccccc3OC)cc(=O)n2c1 [Example 45, 7-Methoxy-2-[4-(2-methoxy-phenyl)-5-thiophen-2-yl-4H-[1,2,4]triazol-3-ylsulfanylmethyl]-pyrido[1,2-a]pyrimidin-4-one] |  | 
7.8 | 117 | COc1ccccc1-n1c(SCc2cc(=O)n3cc(Br)ccc3n2)nnc1-c1cccs1 [Example 46, 7-Bromo-2-[4-(2-methoxy-phenyl)-5-thiophen-2-yl-4H-[1,2,4]triazol-3-ylsulfanylmethyl]-pyrido[1,2-a]pyrimidin-4-one] |  | 
25.2 | 54 | COc1ccccc1-n1c(SCc2cc(=O)n3cc(C#N)ccc3n2)nnc1-c1cccs1 [Example 47, 2-[4-(2-Methoxy-phenyl)-5-thiophen-2-yl-4H-[1,2,4]triazol-3-ylsulfanylmethyl]-4-oxo-4H-pyrido[1,2-a]pyrimidine-7-carbonitrile] |  | 
28 | 103 | COc1ccccc1-n1c(SCc2cc(=O)n3cc(C)ccc3n2)nnc1-c1cccs1 [Example 48, 2-[4-(2-Methoxy-phenyl)-5-thiophen-2-yl-4H-[1,2,4]triazol-3-ylsulfanylmethyl]-7-methyl-pyrido[1,2-a]pyrimidin-4-one] |  | 
23.4 | 107 | COc1ccccc1-n1c(SCc2cc(=O)n3cc(F)ccc3n2)nnc1-c1cccs1 [Example 49, 7-Fluoro-2-[4-(2-methoxy-phenyl)-5-thiophen-2-yl-4H-[1,2,4]triazol-3-ylsulfanylmethyl]-pyrido[1,2-a]pyrimidin-4-one] |  | 
6.74 | 110 | COc1ccccc1-n1c(SCc2cc(=O)n3cc(Cl)ccc3n2)nnc1-c1cccs1 [Example 50, 7-Chloro-2-[4-(2-methoxy-phenyl)-5-thiophen-2-yl-4H-[1,2,4]triazol-3-ylsulfanylmethyl]-pyrido[1,2-a]pyrimidin-4-one] |  | 
451 | 125 | COc1ccccc1-n1c(SCc2cc(=O)n3ccc(C)cc3n2)nnc1-c1cccs1 [Example 51, 2-[4-(2-Methoxy-phenyl)-5-thiophen-2-yl-4H-[1,2,4]triazol-3-ylsulfanylmethyl]-8-methyl-pyrido[1,2-a]pyrimidin-4-one] |  | 
 |  | COc1ccccc1-n1c(SCc2nc(=O)c3ccccc3[nH]2)nnc1-c1cccs1 [Example 52, 2-[4-(2-Methoxy-phenyl)-5-thiophen-2-yl-4H-[1,2,4]triazol-3-ylsulfanylmethyl]-1H-quinazolin-4-one] | 113 | 240
1030 | 59 | COc1ccccc1-n1c(SCc2nc3cc(C)ccc3c(=O)[nH]2)nnc1-c1cccs1 [Example 53, 2-(((4-(2-methoxyphenyl)-5-(thiophen-2-yl)-4H-1,2,4-triazol-3-yl)thio)methyl)-7-methylquinazolin-4(3H)-one] |  | 
31.3 | 118 | COc1ccccc1-n1c(SCc2nc(=O)c3cc(C#N)ccc3[nH]2)nnc1-c1cccs1 [Example 54, 2-[4-(2-Methoxy-phenyl)-5-thiophen-2-yl-4H-[1,2,4]triazol-3-ylsulfanylmethyl]-4-oxo-1,4-dihydro-quinazoline-6-carbonitrile] |  | 
9 | 109 | COc1ccccc1-n1c(SCc2nc(=O)c3cc(F)ccc3[nH]2)nnc1-c1cccs1 [Example 55, 6-Fluoro-2-[4-(2-methoxy-phenyl)-5-thiophen-2-yl-4H-[1,2,4]triazol-3-ylsulfanylmethyl]-1H-quinazolin-4-one] |  | 

Compound | EC50 [1] [nM] | Emax [2] [%] | Emax [%] | EC50 [nM]
COc1ccccc1-n1c(SCc2csc(-c3ccccc3)n2)nnc1-c1cccs1 [Example 31, 4-(2-Methoxy-phenyl)-3-(2-phenyl-thiazol-4-ylmethylsulfanyl)-5-thiophen-2-yl-4H-[1,2,4]triazole] | 635 |  | 133 | 
